Patent US12527862B2, “Bactericidal/permeability increasing protein for use in a method of immunization, preferably as an adjuvant in a method of vaccination” (UNIVERSITÄT REGENSBURG, priority 2018, dated 2026)

Key:
BMDCs = test: Cytokine protein secretion by BMDCs (Luminex); type: cell-based, C57BL/6J mice; conditions: Zymd 5 μg/ml, bLP 10 nM; Luminex, n>7, 4h (FIG. 3)
Method: All methods mentioned in this example were carried out as described in the preceding examples. Cells were stimulated with Zymosan depleted (Zymd, 5 μg/ml) from Invivogen (San Diego, CA, USA) or (R)-Pam3CSK4 (bLP, 10 nM) from EMC Microcollections GmbH (Tübingen, Germany). Protein secretion analysis was performed using the supernatants.
To quantify the interleukin and chemokine protein-level after stimulation with huBPI, Zymd, and (R)-Pam CSK4, a multiplex-system was used and determined by using the Luminex® technology (Austin, TX, USA). The cytokines were captured with anti-mouse capture-antibodies and detected by biotinylated antibodies specific for the respective protein (Table 3). Protein concentrations were calculated using a reconstituted standard curve of the analyzed proteins (SM039, #LMC4031, Lot #1438354; Thermo Fisher Scientific; Standard Mix 1a, #EPX010-20603-901, Lot #111709101, eBioscience).

BPI [1] = target: T1, BPI (Homo sapiens, UniProt P17213); test: MicroScale Thermophoresis (MST) binding of ligands to BPI; conditions: 5 nM labeled protein, 25° C. (FIGS. 5A, 5C, 8A, 8B)
T1 construct: aa32-487 of the huBPI respectively aa28-483 of muBPI; HA signal peptide (N); made in house; host or cells: HEK293T
T1 sequence (P17213 32-487): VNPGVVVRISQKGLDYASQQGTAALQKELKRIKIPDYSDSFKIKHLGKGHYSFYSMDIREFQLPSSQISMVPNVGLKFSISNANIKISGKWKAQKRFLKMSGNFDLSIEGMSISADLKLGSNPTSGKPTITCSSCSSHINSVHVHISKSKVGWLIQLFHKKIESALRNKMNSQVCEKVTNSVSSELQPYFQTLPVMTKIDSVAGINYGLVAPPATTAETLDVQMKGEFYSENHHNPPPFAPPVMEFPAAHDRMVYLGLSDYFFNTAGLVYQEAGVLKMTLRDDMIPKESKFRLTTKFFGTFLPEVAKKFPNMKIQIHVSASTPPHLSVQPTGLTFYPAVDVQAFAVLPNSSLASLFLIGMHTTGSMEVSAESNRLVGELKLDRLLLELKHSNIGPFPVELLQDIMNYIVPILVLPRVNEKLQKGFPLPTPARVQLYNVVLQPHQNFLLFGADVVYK
Method: (§1) BPIN (A) and rBPI were labeled with NT647 in PBS pH 7.4 (Monolith NT™ Protein Labeling Kit RED-NHS, NanoTemper Technologies, Munich, Germany). Concentration of labeled protein was determined using the NanoDrop (ThermoScientific, Wilmington, NC, USA) and Bradford assay (Promega, Mannheim, Germany). MST binding experiments were carried out with 5 nM labeled protein in binding buffer (10 mM HEPES pH 7.4, 150 mM NaCl, 0.1% Tween) with 0.196-6,436 nM of Pam3CSK4 (bLP), or 0.61-20,000 nM of LTA SPΔlgt (LTA), or >0.61-20,000 nM WTA SPΔlgt (WTA) at 20%-40% MST power, 20% LED power in premium capillaries on a Monolith NT.115 pico device at 25° C. (NanoTemper Technologies, Munich, Germany). Pam3CSK4, (bLP) was obtained from EMC Microcollections GmbH (Tübingen, Germany), LTA and WTA were prepared as published previously. MST timetraces were recorded, and the temperature jump and thermophoresis or thermophoresis was analyzed. Binding graphs of each independent experiment were normalized to the fraction bound.
(§2) MST was performed as described for example 5. PiLAM and PiLM were ordered from Invivogen (San Diego, CA, USA). BPI binding assays were performed by incubating Streptavidin-coated 96-well plates (Nunc™ Immobilizer™ Streptavidin F96 clear, Thermo Fisher Scientific, Waltham, MA, USA) with LPS biotin (2 μg/ml) in PBS overnight at 23° C. with gentle agitation. After washing with assay buffer (150 mM NaCl, 50 mM HEPES, Sigma Aldrich, Taufkirchen, Germany) containing 0.01% Casein, plates were blocked with 10 g/l BSA (Sigma Aldrich, Taufkirchen, Germany) at 37° C. and washed again. Thereafter, ligands were preincubated with 20 nM BPI in assay buffer containing 1 g/l BSA for 30 min and loaded onto the plates. Bound BPI was detected by murine anti-human BPI monoclonal antibody (Cat.-No. HM2042, Hycult Biotech, Uden, Netherlands) and HRP-conjugated rabbit anti-mouse IgG (Cat.-No. 315-035-048, Dianova, Hamburg, Germany). […] After addition of 1 N HCl, absorbance was measured at 450 nm. Absorbance indicates binding, the higher the absorbance the higher the binding of BPI to the coated well. […]

BPI [2] = test: as above; design: species or system human; conditions: MST, 0.196-6,436 nM Pam3CSK4 (FIG. 5A)
Method: as §1, §2

BPI [3] = target: T1, BPI; test: BPI binding assay on Streptavidin-coated plates (biotinylated LPS or ODN 1826), direct and competitive
Method: FIG. 7 depicts the binding of BPI to TLR ligands. […] Competition of binding was assessed for different variants of CpG ODNs ([…]) and the TLR3 agonist Poly(I:C) in ODN 1826 coated plates.
Streptavidin-coated plates were incubated with biotinylated LPS (n=3). Competition of binding was assessed for lipoarabinomannan as exemplified for phosphatidyl-inositol lipoarabinomannan (PiLAM).
MST was performed as described for example 5. PiLAM and PiLM were ordered from Invivogen (San Diego, CA, USA). BPI binding assays were performed by incubating Streptavidin-coated 96-well plates (Nunc™ Immobilizer™ Streptavidin F96 clear, Thermo Fisher Scientific, Waltham, MA, USA) with LPS biotin (2 μg/ml) in PBS overnight at 23° C. with gentle agitation. After washing with assay buffer (150 mM NaCl, 50 mM HEPES, Sigma Aldrich, Taufkirchen, Germany) containing 0.01% Casein, plates were blocked with 10 g/l BSA (Sigma Aldrich, Taufkirchen, Germany) at 37° C. and washed again. Thereafter, ligands were preincubated with 20 nM BPI in assay buffer containing 1 g/l BSA for 30 min and loaded onto the plates. Bound BPI was detected by murine anti-human BPI monoclonal antibody (Cat.-No. HM2042, Hycult Biotech, Uden, Netherlands) and HRP-conjugated rabbit anti-mouse IgG (Cat.-No. 315-035-048, Dianova, Hamburg, Germany). TMB (BD OptEIA™ TMB Substrate Reagent Set, BD Biosciences, Heidelberg, Germany) was used as a substrate for peroxidase. After addition of 1 N HCl, absorbance was measured at 450 nm. Absorbance indicates binding, the higher the absorbance the higher the binding of BPI to the coated well. Preincubation with a BPI ligand inhibits binding in a concentration-dependent manner.

[4] = system: bone-marrow derived dendritic cells; test: Microarray gene expression analysis in BMDCs; type: cell-based, C57BL/6J mice; conditions: 200 nM huBPI or muBPI, 4 h, microarray (FIG. 2A)
Method: All methods mentioned in this example were carried out as described in Example 1. BMDCs were seeded into a tissue-culture-treated 96-well plate in VLE-RPMI 1640 media (10% FCS, 10% Penicillin-Streptomycin, 50 μM β-Mercaptoethanol) and stimulated with 200 nM huBPI or muBPI. 4 h after stimulation, gene expression analysis was performed by microarray analysis (Affymetrix Mouse Gene 2.0 ST, FIGS. 2A and 2B).

Molecule: (R)-Pam3CSK4 [bLP]
- stimulatory effect on the expression of IL-6 (IL-6 level), BPI vs Zymd vs bLP (BMDCs): similar
- binding to BPI (MST) (BPI [1]): shown to bind to bLPs
- Affinity of BPI to bLP (BPI [2]): within a nanomolar range

Molecule: ODN 1826
- binding of BPI to plate-bound biotinylated ligand (BPI [3]; Streptavidin-coated plates, absorbance 450 nm, n=4 (FIG. 7A)): Binding of BPI to both LPS and CpG ODN was observed

Molecule: phosphatidyl-inositol lipoarabinomannan [PiLAM]
- competition of BPI binding in biotinylated LPS coated plates (BPI [3]; LPS biotin 2 μg/ml, 20 nM BPI, n=3 (FIG. 8C)): binding is conserved

Molecule: phosphatidyl-inositol lipomannan [PiLM]
- binding to BPI (MST) (BPI [1]): Binding of phosphatidyl-inositol lipomannan (PiLM) to BPI is shown

Molecule: polyinosinic: polycytidylic acid [Poly(I:C)]
- competition of BPI binding in ODN 1826 coated plates (BPI [3]; biotinylated ODN 1826, n=3 (FIG. 7B)): competitive binding was present

B1: murine BPI: recombinant murine BPI, aa28-483 of muBPI, expressed in HEK293T cells (protein, listed as Mus musculus)
chain: TDPGFVAMISQKGLDFACQQGVVELQKELQAISVPDFSGVFKIKHLGKGSYEFYSMAVDGFHIPNPKIEMLPSDGLRVFIKDASIKINGKWMSRKNFLKAGGNFELSIQGVSISTDLILGSDSSGHITTICSNCDSHIDSVHIKISGSMLGWLIRLFHRKIETSLKNIIYKKICKIVRDSVSSKLQPYLKTLSVITRVDDVTSVDYSLLAPLTTTNQFLEGQLKGEFFWRGHRDPLPIHPPVMRFVPNGAYMVCMGISDYFFNTEVLAYQQSGTLKMTLGGQLLSNNGRFQLNTDFLRTFLPKVAKMFPSMGVQLLISAPVPVHLSIQPSGLSFNPKLETQAFVVLPNASLVPLFVLGMKTNASLEVDAEENRLVGEMKLGSRWLLELKESKFGPFKVEYLEDVINYLVSTLVLPKINERLRRGFPLPLPAGIRFSHFTFYPYQNFLLLEADLHLI
- immunostimulatory effect on BMDCs (gene expression) [4]: shows an immunostimulatory effect on BMDCs
